# Test results taken from ChEMBL document CHEMBL1135477, “Antifungal agents. 10. New derivatives of 1-[(aryl)[4-aryl-1H-pyrrol-3-yl]methyl]-1H-imidazole, synthesis, anti-candida activity, and quantitative structure-analysis relationship studies” (J Med Chem, 2002).
# Biological target: Lanosterol 14-alpha demethylase (Candida albicans (strain SC5314 / ATCC MYA-2876) (Yeast), UniProt P10613)
# Experiment: Anticandida activity- (MIC90 compound) / (MIC90 bifonazole)
# Format: functional
# Lanosterol 14-alpha demethylase, sequence (P10613 whole entry): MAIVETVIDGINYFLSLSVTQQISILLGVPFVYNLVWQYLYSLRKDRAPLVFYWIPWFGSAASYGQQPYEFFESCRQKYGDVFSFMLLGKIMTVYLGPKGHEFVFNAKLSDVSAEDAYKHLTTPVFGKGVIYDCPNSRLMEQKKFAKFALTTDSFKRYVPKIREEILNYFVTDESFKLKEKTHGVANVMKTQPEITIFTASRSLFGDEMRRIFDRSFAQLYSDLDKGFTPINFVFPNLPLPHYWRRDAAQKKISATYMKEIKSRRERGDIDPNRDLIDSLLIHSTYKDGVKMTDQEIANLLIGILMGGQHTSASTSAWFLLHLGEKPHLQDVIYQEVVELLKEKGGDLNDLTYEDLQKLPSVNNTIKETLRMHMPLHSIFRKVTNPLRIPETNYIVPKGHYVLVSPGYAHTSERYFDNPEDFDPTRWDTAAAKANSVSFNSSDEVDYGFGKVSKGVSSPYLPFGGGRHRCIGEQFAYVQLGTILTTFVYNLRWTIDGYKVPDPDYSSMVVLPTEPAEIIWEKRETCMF
row,Ratio,Compound
1,4,COc1ccc([C@H](Cc2ccc(Cl)cc2)n2ccnc2)cc1
2,3.6,COc1ccc([C@@H](Cc2ccc(Cl)cc2Cl)n2ccnc2)cc1
3,58,COc1ccc([C@H](Cc2cccc(-n3cccc3)c2)n2ccnc2)cc1
4,63,COc1ccc([C@H](Cc2ccc(Cl)cc2)n2cnnc2)cc1
5,2.1,COc1ccc([C@H](Cc2ccc(N)cc2)n2ccnc2)cc1
6,7.2,COc1ccc([C@H](Cc2ccccc2-n2cccc2)n2ccnc2)cc1
7,123,COc1ccc([C@H](Cc2ccccc2[N+](=O)[O-])n2ccnc2)cc1
8,32,COc1ccc([C@H](Cc2cccc(Cl)c2)n2ccnc2)cc1
9,8,COc1ccc(C[C@@H](c2ccc(OC)cc2)n2ccnc2)cc1
10,32,COc1ccc([C@H](Cc2ccc([N+](=O)[O-])cc2)n2ccnc2)cc1
11,29,CCC(c1ccc(Cl)cc1)[C@@H](c1ccc(OC)cc1)n1cncn1 (stereo not given in full)
12,63,CC[C@@H](c1ccc(Cl)cc1)[C@@H](c1ccc(OC)cc1)n1cnnc1
13,62,COc1ccc([C@@H]([C@@H](Cc2ccc(Cl)cc2Cl)c2ccc(Cl)cc2)n2cncn2)cc1
14,7.3,CC[C@@H](c1ccc([N+](=O)[O-])cc1)[C@H](c1ccc(OC)cc1)n1ccnc1
15,21,COc1ccc([C@H]([C@@H](Cc2ccc(Cl)cc2Cl)c2ccc(OC)cc2)n2ccnc2)cc1
16,32,COc1ccc([C@H](Cc2ccccc2Cl)n2cncn2)cc1

# Second part, the compound before the results:
row,Compound,Ratio
1,Clc1ccc(-c2cn(Cc3ccc(Cl)cc3Cl)cc2[C@@H](c2ccccc2)n2ccnc2)cc1,40
2,Clc1ccc(Cn2cc(-c3ccccc3)c([C@@H](c3ccccc3)n3ccnc3)c2)c(Cl)c1,22
3,Fc1ccc(-c2c[nH]cc2[C@@H](c2ccccc2)n2ccnc2)cc1,1
4,Clc1ccc(-c2c[nH]cc2[C@@H](c2ccccc2)n2ccnc2)cc1,0.46
5,Cc1ccc([C@H](c2ccn(-c3ccc(Cl)cc3)c2)n2ccnc2)cc1,0.89
6,Fc1ccc(-n2ccc([C@@H](c3ccccc3)n3ccnc3)c2)cc1,4
7,Cc1ccc([C@H](c2ccn(-c3ccc(F)cc3)c2)n2ccnc2)cc1,1.9
8,Cn1cc(-c2ccc(F)cc2)c([C@@H](c2ccccc2)n2ccnc2)c1,4
9,Cc1ccc(-c2cn(Cc3ccc(Cl)cc3Cl)cc2[C@@H](c2ccccc2)n2ccnc2)cc1,42
10,Cn1cc(-c2ccccc2)c([C@H](c2ccccc2)n2ccnc2)c1,4
11,Cc1ccc(-c2cn(C)cc2[C@@H](c2ccccc2)n2ccnc2)cc1,3.8
12,Cn1cc(-c2ccc(Cl)cc2)c([C@@H](c2ccccc2)n2ccnc2)c1,0.9
13,Fc1ccc([C@H](c2ccn(-c3ccccc3)c2)n2ccnc2)cc1,2
14,Fc1ccc(-n2ccc([C@H](c3ccc(Cl)cc3)n3ccnc3)c2)cc1,1.8
15,Clc1ccc(-n2ccc([C@@H](c3ccccc3)n3ccnc3)c2)cc1,0.5
16,Fc1ccc([C@@H](c2ccn(-c3ccc(Cl)cc3)c2)n2ccnc2)cc1,1.8
17,Clc1ccc([C@@H](c2ccn(-c3ccc(Cl)cc3)c2)n2ccnc2)cc1,3
18,Cc1ccc([C@H](c2ccn(-c3ccccc3)c2)n2ccnc2)cc1,1
19,c1ccc([C@H](c2ccn(-c3ccccc3)c2)n2ccnc2)cc1,4.1
20,Cc1ccc([C@H](c2ccc([N+](=O)[O-])cc2)n2ccnc2)cc1,0.5
21,O=[N+]([O-])c1ccc([C@@H](c2ccc(Cl)cc2)n2ccnc2)cc1,1
22,Cc1ccc([C@@H](c2ccc(-n3cccc3)cc2)n2ccnc2)cc1,0.13
23,O=[N+]([O-])c1ccc([C@@H](c2ccccc2)n2ccnc2)cc1,2.2
24,c1ccc([C@@H](c2ccc(-n3cccc3)cc2)n2ccnc2)cc1,0.25
